Source: patent US12048689B2, “Pharmaceutical composition for preventing or treating inflammatory bowel disease acting as a functional antagonist for S1PR1 and S1PR4” (NEXTGEN BIOSCIENCE CO., LTD., priority 2022, dated 2024)
“And” between values parts separate entries of the source, which are not always exact repeats. Identical values can stand only once. Like-named read-outs stand apart in the source and are kept apart here.

Legend:
[1] = test system: DSS-induced colitis mice; assay: Dextran sulfate sodium (DSS)-induced colitis model, disease activity index; format: in vivo
Description: The effect of NXC736 for inflammatory bowel disease was evaluated using a dextran sulfate sodium (DSS)-induced colitis model. In the mouse model, inflammatory bowel disease was induced by administering DSS to mice in drinking water at a concentration of 2.5%. Treatment groups consisted of a test group administered NXC736, a positive control administered ozanimod or methotrexate (MTX), a vehicle group and a normal control, and each group had n=10. In the model in which inflammatory bowel disease was induced, NXC736, which is the compound of the present invention, was orally administered at a dose of 5 and 10 mg/kg once a day for 7 days, ozanimod as a positive control material was orally administered at 5 mg/kg once a day, and methotrexate (MTX) as a positive control material was intraperitoneally administered at 3 mg/kg three times a week.
FIG. 3 illustrates the disease activity index (DAI) of DSS-induced colitis mice and the area under the disease activity index curve (AUC) of DSS-induced colitis mice. […] The calculation criteria for DAI are shown in the following Table 1, and the DAI was evaluated on days 0, 1, 2, 3, 4, 5, 6, 7, and 8.

[2] = biological target: hERG potassium ion channels (Homo sapiens, UniProt Q12809)
Sequence of hERG potassium ion channels (Q12809 whole entry): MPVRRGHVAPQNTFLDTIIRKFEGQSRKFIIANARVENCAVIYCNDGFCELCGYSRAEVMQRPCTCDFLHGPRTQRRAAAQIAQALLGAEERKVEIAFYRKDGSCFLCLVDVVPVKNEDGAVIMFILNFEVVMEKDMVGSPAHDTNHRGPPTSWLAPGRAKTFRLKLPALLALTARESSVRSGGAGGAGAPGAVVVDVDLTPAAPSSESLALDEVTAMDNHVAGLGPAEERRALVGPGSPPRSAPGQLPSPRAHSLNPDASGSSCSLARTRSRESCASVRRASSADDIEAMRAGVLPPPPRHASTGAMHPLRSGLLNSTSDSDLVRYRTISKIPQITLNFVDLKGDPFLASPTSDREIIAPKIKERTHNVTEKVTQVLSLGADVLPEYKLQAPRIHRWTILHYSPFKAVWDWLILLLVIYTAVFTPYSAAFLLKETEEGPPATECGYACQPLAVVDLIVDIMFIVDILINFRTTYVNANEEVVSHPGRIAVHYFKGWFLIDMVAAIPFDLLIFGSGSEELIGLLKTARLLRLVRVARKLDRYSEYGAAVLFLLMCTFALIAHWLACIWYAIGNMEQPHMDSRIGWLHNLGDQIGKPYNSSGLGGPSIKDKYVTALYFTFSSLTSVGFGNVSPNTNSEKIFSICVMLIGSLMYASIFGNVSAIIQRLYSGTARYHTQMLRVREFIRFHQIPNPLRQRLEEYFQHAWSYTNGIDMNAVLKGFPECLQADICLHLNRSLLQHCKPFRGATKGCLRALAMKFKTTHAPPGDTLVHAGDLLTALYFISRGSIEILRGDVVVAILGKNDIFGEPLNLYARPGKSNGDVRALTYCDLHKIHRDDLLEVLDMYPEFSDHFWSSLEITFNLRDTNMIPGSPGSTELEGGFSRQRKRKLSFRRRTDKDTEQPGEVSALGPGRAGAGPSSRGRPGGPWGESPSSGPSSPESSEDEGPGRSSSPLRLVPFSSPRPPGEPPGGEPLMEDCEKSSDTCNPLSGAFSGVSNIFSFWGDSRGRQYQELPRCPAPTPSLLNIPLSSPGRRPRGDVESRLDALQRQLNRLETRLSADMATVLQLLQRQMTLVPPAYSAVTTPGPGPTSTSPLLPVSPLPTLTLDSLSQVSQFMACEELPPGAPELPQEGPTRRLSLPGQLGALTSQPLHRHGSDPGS

[3] = test system: T cells, CD4 T cells, and CD8 T cells; assay: Suppressive effect on rat immune cells (FACS of peripheral blood and bone marrow after oral administration); format: in vivo; conditions: SD rats
Description: To evaluate the effect of NXC736 on rat immune cells, after oral administration of NXC736 at 10 mg/kg/day to SD rats, changes in lymphocytes in the peripheral blood (PB) stream and bone marrow (BM) were classified for T cells, CD4 T cells, and CD8 T cells, and FACS analysis was performed at 0, 4, 8, 12, 24, 36, and 48 hours after the administration of a test material. A cell number was measured and shown as a percentage (%) of a control based on 0 time, and the numbers of T cells, CD4 T cells, and CD8 T cells were measured and shown as a percentage (%) of a control based on 0 time.

[4] = Cardiovascular system in beagle dogs (telemetry heart rate, general symptoms); format: in vivo; conditions: oral 12.5, 25 and 50 mg/kg
Description: NXC736 was orally administered to four male beagle dogs under unanesthetized and unrestrained conditions with a remote transmitter inserted. Thereafter, the effect of NXC736 on the cardiovascular system was evaluated by measuring the heart rate for four beagle dogs, and it was confirmed with the naked eye whether abnormal symptoms appeared.
In this experiment, the experimental material was administered to each of the four beagle dogs over four steps. A 0.5% MC aqueous solution, which is an excipient, was administered as a control material in the first administration step (NXC7365 at 0 mg/kg), NXC736 at 12.5 mg/kg was administered in the second administration step, NXC736 at 25 mg/kg was administered in the third administration step, and NXC736 at 50 mg/kg was administered in the fourth administration step. The 1st to 4th administrations were performed at intervals of 1 week. In addition, at 0 hours before administration of the experimental material and at 0.5 hours, 1 hour, 2 hours, 3 hours, 4 hours, 6 hours, 8 hours, 12 hours and 24 hours after administration of the test material, the beagle dog's heart rate were measured.

[5] = test system: T cells, CD4 T cells, and CD8 T cells; assay: Suppressive effect on mouse immune cells (FACS of peripheral blood and bone marrow after oral administration); format: in vivo; conditions: mice; for Cell number in bone marrow, percentage of control based on 0 time: listed as NXC7363, 3 mg/kg
Description: To confirm whether NXC736, which acts on the S1P receptor, also has an effect on lymphocyte reduction, the effect of NXC736 on immune cells was evaluated. After oral administration of NXC736 at 3 mg/kg/day to mice, changes in lymphocytes in the peripheral blood (PB) stream and bone marrow (BM) were classified for T cells, CD4T cells, and CD8T cells, and FACS analysis was performed at 0, 4, 8, 12, 24, and 36 hours after the administration of a test material. A cell number was measured and shown as a percentage (%) of a control based on 0 time.

[6] = oral 3 mg/kg, peripheral blood, 4 hours, 3 mg/kg

SMILES: CN(Cc1cnc2nc(N)nc(N)c2n1)c1ccc(C(=O)N[C@@H](CCC(=O)O)C(=O)O)cc1 [MTX, methotrexate, reference compound]
- Disease activity index (DAI) and AUC compared to negative control (vehicle) ([1]; MTX 3 mg/kg intraperitoneally three times a week): statistically significant reduction effect

SMILES: CCCCCCCCCCn1cc(CCC(N)(CO)CO)nn1 [NXC736, 2-amino-2-(2-(1-decyl-1H-1,2,3-triazol-4-yl)ethyl)propane-1,3-diol]
- Hill coefficient [2]: 1.527
- Compensated suppression rate of hERG channel currents ([2]; 1 μM): 9.94±1.96%
- Compensated suppression rate of hERG channel currents ([2]; 3 μM): 13.98±4.48%
- Compensated suppression rate of hERG channel currents ([2]; 10 μM): 35.03±12.09%
- Compensated suppression rate of hERG channel currents ([2]; 30 μM): 82.62±7.31%
- Time until which the suppressive effect on T cells was maintained ([3]; oral 10 mg/kg, peripheral blood): 24 h
- Change of cell number in bone marrow ([3]; oral, bone marrow): no change or a tendency to increase
- Suppressive effect on number of T cells in peripheral blood ([3]; oral, peripheral blood, dose-dependent (doses of the three values not given)): 70% and 80% and 87%
- General symptoms observed with the naked eye [4]: no abnormal symptoms
- Change in heart rate ([4]; 0 to 24 hours): no change in heart rate
- Cell number in bone marrow, percentage of control based on 0 time ([5]; 3 mg/kg, 4 hours after administration): 135% and 120%
- Cell number in bone marrow, percentage of control based on 0 time ([5]; 3 mg/kg, 24 hours after administration): 131% and 118%
- Time until which the suppressive effect on T cell number was maintained to some extent ([5]; 3 mg/kg, reduced from 4 hours, then recovered): 24 h
- Time until which the reduction of cell number in peripheral blood was maintained ([5]; oral 3 mg/kg, peripheral blood): 12 h
- CD4 T cell number in peripheral blood, percentage of control based on 0 time [5, 6]: 16.4% and 17.6%
- CD8 T cell number in peripheral blood, percentage of control based on 0 time [5, 6]: 5.9% and 9.3%
- T cell number in peripheral blood, percentage of control based on 0 time [5, 6]: 40.6% and 41.6%
- Cell number level recovered in peripheral blood, percentage of control ([5]; oral 3 mg/kg, peripheral blood, 36 hours): 88.9%
- Clinical indicators (body weight loss, stool concentration, intestinal bleeding) compared to ozanimod ([1]; NXC736 5 mg/kg and 10 mg/kg vs ozanimod 5 mg/kg): equivalent values or more
- Disease activity index (DAI) and AUC compared to negative control (vehicle) ([1]; NXC736 5 mg/kg orally once a day for 7 days): statistically significant reduction effect
- Disease activity index (DAI) and AUC compared to negative control (vehicle) ([1]; NXC736 10 mg/kg orally once a day for 7 days): statistically significant reduction effect

SMILES: CC(C)Oc1ccc(-c2nc(-c3cccc4c3CC[C@@H]4NCCO)no2)cc1C#N [ozanimod, reference compound]
- Disease activity index (DAI) and AUC compared to negative control (vehicle) ([1]; ozanimod 5 mg/kg orally once a day): statistically significant reduction effect
